{"source": "paper PMC5589090", "about": "(PLoS Medicine, 2017)", "key": {"[1]": {"experiment": "Decitabine plasma pharmacokinetics by LCMS/MS after first oral THU-decitabine dose", "format": "in vivo, human", "conditions": "for Cmax: first dose", "description": "Blood samples were drawn over a period of less than 1 minute into tubes pre-loaded with heparin and THU 10 μg/ml (to prevent in vitro metabolism by CDA) and immediately transferred onto ice. Samples were then centrifuged as soon as possible at 600 g for 5 minutes at 4°C. […] Pharmacokinetic data were analyzed using non-compartmental methods or a 2-compartment model with instantaneous/intravenous input using the R package PKLMfit. […] The AUClast (the area under the curve from the time of dosing to the last measurable concentration) was calculated by the linear trapezoidal method.\nSamples will be processed immediately by centrifugation at 3000 × g for 5 min in a refrigerated centrifuge. […] To increase stability, tetrahydrouridine (THU), a cytidine deaminase inhibitor, will be added to the plasma supernatant at a final concentration of 100 μM immediately after centrifugation. Plasma (300 μL) will be then aliquoted into two tubes with the remaining plasma in a third tube. The plasma will be immediately frozen at −80 °C until analysis. All samples will be sent to Jiang Wang, PhASR at The Ohio State University for processing (appendix B).\nThe chromatographic separation will be performed on a 250 mm × 2.0 mm i.d., 4.0 μm, C18 column (YMC Co. Ltd., Kyoto, Japan) and a 20 mm × 2.1 mm i.d., 3.5 μm, C18 guard column (Waters Xterra RP18, Waters Corporation, Milford, MA, USA) kept at room temperature. The mobile phase used for chromatographic separation will be composed of 2 mM ammonium acetate containing 0.1% formic acid and methanol, and is delivered using a gradient flow. The mass spectrometer is equipped with an electrospray interface, which will be operated in a positive mode, and controlled by the completely validated Masslynx software (Waters Corporation, Milford, MA, USA). […] The analytical method is currently under development and validation according to the ICH Guideline (ICH Harmonized Tripartite Guideline. Validation of Analytical Procedures: Text and Methodology. Q2(R1). Incorporated in November, 2005) in the laboratory of Dr. Lyubimov (Toxicology Research Laboratory, TRL). Method specificity, linearity, range, accuracy, precision and detection limit will be established and validated. In addition, short-term, long-term and freezing/towing stability will be determined. All sample collection, handling and analysis procedures will be performed according to GLP and GCP requirements. All data and the report will be audited by the Quality Assurance Officer at TRL.\nPK analysis: PK analysis will be performed using the Winnonlin software (version 5.0.1, Pharsight NC) and will include the determination of maximum plasma concentration (Cmax), time to maximum plasma concentration (Tmax), area under the plasma concentration-versus-time curve from time zero to last measurable plasma concentration (AUC0-t). The terminal rate constant ( [picture] z) will be determined from the slope of the terminal phase of the plasma concentration-time curve using uniform weight. The terminal half-life (T1/2) will be calculated as 0.693 divided by [picture] z. Area under the concentration-time curve (AUC) will be calculated using the log/linear trapezoidal rule. The AUC will be extrapolated to infinity (AUC0– [picture] ) by using the equation, AUC0– [picture] = AUC0–t + Clast/ [picture] z, where Clast will be the final quantifiable concentration."}, "DNMT1": {"target": "T1, DNMT1 (Homo sapiens, UniProt P26358)", "T1 construct": "DNMT1 protein levels were measured by flow cytometric analysis of peripheral blood mononuclear cells; endogenous in cells; host or cells: peripheral blood mononuclear cells of sickle cell disease patients (ex vivo, after in vivo dosing)", "experiment": "DNMT1 protein measurement by flow cytometry of peripheral blood mononuclear cells", "format": "in vivo", "quoted_text": "Phlebotomized whole blood was layered over Histopaque. The interface was collected and washed with phosphate-buffered saline (PBS). Cell suspensions of approximately 200,000 cells were fixed with 4% paraformaldehyde for 30 minutes on ice. Cells were spun down, washed in PBS, and suspended in 70% ethanol and stored at −20°C for subsequent batched analyses. […] All procedures were performed on ice and all centrifugations were done at 400 g for 5 minutes at 4°C. The pellet was hydrated overnight in 1 ml sterile, distilled water to partially reverse the alcohol fixation. After incubation, samples were centrifuged and then resuspended in 1 ml PBS/2% bovine serum albumin (BSA) and incubated for 30 minutes to block nonspecific antibody binding. Following centrifugation, unlabeled anti-DNMT1 antibody [EPR 3522] […] Samples were washed 3 times: each wash was a 10-minute incubation with 1 ml PBS/2% BSA followed by centrifugation. After the third wash, CD64-Alexa Fluor 488 (5 μl/test; BioLegend; catalog no. 305010), Cyclin A2-PE (4μl/test; Beckman Coulter; catalog no. B15092), CD33-APC/Cy7 (5 μl/test; BioLegend; catalog no. 366614), and F(ab′)2-goat anti-rabbit IgG (H+L) Alexa Fluor 647 (0.0938 μg/test; Life Technologies; catalog no. A21246) were added in a final volume of 100 μl and incubated for 1 hour. After the incubation and without washing, 3.5 ml PBS containing 0.5 μg/ml DAPI was added to each sample. All samples were analyzed on an Attune NxT Acoustic Focusing Cytometer (Life Technologies) at a flow rate of 500 μl per minute. Compensation was performed with CompBeads Set Anti-Mouse Ig, κ (BD Biosciences; catalog no. 552843) and Flow Cytometry Protein G Antibody Binding Beads (Bangs Laboratories, Inc.; catalog no. 554/11863).\nData were normalized to the instrument using 8-peak SPHERO Rainbow Calibration Particles (Spherotech; catalog no. RCP-30-5A). WinList 3D v8.0 (Verity Software House) was used for post-acquisition analysis. Doublet discrimination was performed using the DAPI area and peak signals. […]"}, "[2]": {"experiment": "Decitabine storage and solution stability", "format": "physicochemical", "conditions": "18 months at -20 °C"}, "[3]": {"design": "method as in ref 72 (a number printed in a supplementary file, which may have a reference list of its own: not looked up in the article's list)", "conditions": "cited from earlier work"}, "KG1a": {"tested_on": "KG1a", "conditions": "cited from earlier work"}, "[4]": {"tested_on": "L5178Y mouse lymphoma cells", "design": "method as in ref 75 (a number printed in a supplementary file, which may have a reference list of its own: not looked up in the article's list)", "conditions": "cited from earlier work"}, "thyroid carcinoma": {"tested_on": "thyroid carcinoma", "design": "method as in ref 95 (a number printed in a supplementary file, which may have a reference list of its own: not looked up in the article's list)", "conditions": "cited from earlier work"}, "[5]": {"design": "method as in ref 99 (a number printed in a supplementary file, which may have a reference list of its own: not looked up in the article's list)", "conditions": "cited from earlier work"}, "[6]": {"conditions": "cited from earlier work"}}, "note": "Several values for one entry are separate records, joined by “and”; a condition that tells them apart may be missing. Identical values can stand only once. Like-named read-outs stand apart in the source and are kept apart here.", "data": [{"smiles": "Nc1ncn([C@H]2C[C@H](O)[C@@H](CO)O2)c(=O)n1", "note": "[decitabine, 5-aza-2’-deoxycytidine]", "values": [{"measurement": "Cmax", "setting": "[1]; human, plasma, po, decitabine plasma concentration, Cmax, oral decitabine 0.08 mg/kg (cohort 4) 60 min after oral THU 10 mg/kg", "value": "9 to 21", "unit": "nM"}, {"measurement": "Cmax", "setting": "[1]; human, plasma, po, decitabine plasma concentration, Cmax, oral decitabine […] (cohort 5) 60 min after oral THU 10 mg/kg, at 2 hours", "value": "~50", "unit": "nM"}, {"measurement": "decitabine detected in the plasma", "setting": "[1]; lowest oral decitabine dose level 0.01 mg/kg after oral THU 10 mg/kg", "value": "detected"}, {"measurement": "decitabine Tmax", "setting": "[1]; oral decitabine 60 minutes after THU 10 mg/kg", "value": "hours"}, {"measurement": "Cmax", "setting": "[1]; read-out: decitabine plasma concentration, Cmax, oral decitabine […] (cohort 5) 60 min after oral THU 10 mg/kg, at 2 hours", "value": "39 to 54", "unit": "nM"}, {"measurement": "DNMT1 protein decrease from baseline in PBMC", "setting": "DNMT1; decitabine 0.08 mg/kg (cohort 4) after THU 10 mg/kg 2X/week, all patients", "value": "approximately 50%"}, {"measurement": "DNMT1 protein decrease from baseline in PBMC", "setting": "DNMT1; decitabine […] (cohort 5) after THU 10 mg/kg 2X/week, 2 of the 3 patients", "value": "> 75", "unit": "%"}, {"measurement": "DNMT1 protein decrease from baseline in PBMC", "setting": "DNMT1; lower decitabine doses (cohorts 1-3)", "value": "not in patients with lower decitabine doses"}, {"measurement": "drug substance stability on storage", "setting": "[2]", "value": "no change in appearance, assay or impurities"}, {"measurement": "Max F-cell%", "setting": "[3]; SC decitabine, mean ± SD, r3 HU non-responders (n=3), r4 HU responders (n=5), r5 all patients (n=8)", "value": "55.1 ± 11.1% and 81.2 ± 4.4% and 71.4 ± 6.5%"}, {"measurement": "recovery from neutropenia", "setting": "[3]; all subjects", "value": "within a week"}, {"measurement": "Pre-tx HbF%", "setting": "[3]; baseline, mean ± SD, r3 HU non-responders, r4 HU responders, r5 all patients", "value": "2.4 ± 1.6% and 9.0 ± 2.5% and 6.5 ± 1.4%"}, {"measurement": "local toxicity at SQ injection sites", "setting": "[3]", "value": "No local toxicity"}, {"measurement": "bone marrow aspirate spicule cellularity with treatment", "setting": "[3]; four subjects", "value": "no appreciable decrease"}, {"measurement": "Total Hb, peak", "setting": "[3]; mean ± 2SD, pre-treatment 7.6 ± 2", "value": "9.6 ± 1.8"}, {"measurement": "Adh. to laminin, Pretherapy", "setting": "[3]; mean ± SE, baseline", "value": "3470 ± 500", "unit": "RBCs/mm^2"}, {"measurement": "Adhesion to TSP, Pretherapy", "setting": "[3]; mean ± SE, baseline", "value": "1570 ± 170", "unit": "RBCs/mm^2"}, {"measurement": "CRP, Pretherapy", "setting": "[3]; mean ± SE, baseline", "value": "1.25 ± 0.27", "unit": "mg/dL"}, {"measurement": "D-Dimer, Pretherapy", "setting": "[3]; mean ± SE, baseline", "value": "490 ± 90", "unit": "ng/mL"}, {"measurement": "F1+2, Pretherapy", "setting": "[3]; mean ± SE, baseline", "value": "1.75 ± 0.22", "unit": "nmol/L"}, {"measurement": "TAT, Pretherapy", "setting": "[3]; mean ± SE, baseline", "value": "7.0 ± 1.7", "unit": "µg/L"}, {"measurement": "VWFpp, Pretherapy", "setting": "[3]; mean ± SE, baseline", "value": "196 ± 26", "unit": "u/dL"}, {"measurement": "sVCAM, Pretherapy", "setting": "[3]; mean ± SE, baseline", "value": "1170 ± 140", "unit": "ng/mL"}, {"measurement": "Adh. to laminin, Post Cycle 1", "setting": "[3]; mean ± SE", "value": "1950 ± 300", "unit": "RBCs/mm^2"}, {"measurement": "Adh. to laminin, Post Cycle 2", "setting": "[3]; mean ± SE", "value": "1570 ± 210", "unit": "RBCs/mm^2"}, {"measurement": "Adhesion to TSP, Post Cycle 1", "setting": "[3]; mean ± SE", "value": "690 ± 150", "unit": "RBCs/mm^2"}, {"measurement": "Adhesion to TSP, Post Cycle 2", "setting": "[3]; mean ± SE", "value": "910 ± 160", "unit": "RBCs/mm^2"}, {"measurement": "CRP, Post Cycle 1", "setting": "[3]; mean ± SE", "value": "1.19 ± 0.34", "unit": "mg/dL"}, {"measurement": "CRP, Post Cycle 2", "setting": "[3]; mean ± SE", "value": "0.82 ± 0.26", "unit": "mg/dL"}, {"measurement": "D-Dimer, Post Cycle 1", "setting": "[3]; mean ± SE", "value": "320 ± 50", "unit": "ng/mL"}, {"measurement": "D-Dimer, Post Cycle 2", "setting": "[3]; mean ± SE", "value": "300 ± 50", "unit": "ng/mL"}, {"measurement": "F1+2, Post Cycle 1", "setting": "[3]; mean ± SE", "value": "1.56 ± 0.16", "unit": "nmol/L"}, {"measurement": "F1+2, Post Cycle 2", "setting": "[3]; mean ± SE", "value": "1.41 ± 0.15", "unit": "nmol/L"}, {"measurement": "TAT, Post Cycle 1", "setting": "[3]; mean ± SE", "value": "8.6 ± 2.3", "unit": "µg/L"}, {"measurement": "TAT, Post Cycle 2", "setting": "[3]; mean ± SE", "value": "5.2 ± 0.9", "unit": "µg/L"}, {"measurement": "VWFpp, Post Cycle 1", "setting": "[3]; mean ± SE", "value": "156 ± 28", "unit": "u/dL"}, {"measurement": "VWFpp, Post Cycle 2", "setting": "[3]; mean ± SE", "value": "144 ± 13", "unit": "u/dL"}, {"measurement": "sVCAM, Post Cycle 1", "setting": "[3]; mean ± SE", "value": "930 ± 100", "unit": "ng/mL"}, {"measurement": "sVCAM, Post Cycle 2", "setting": "[3]; mean ± SE", "value": "840 ± 100", "unit": "ng/mL"}, {"measurement": "nadir ANC, NCI grade 4 neutropenia", "setting": "[3]; one patient", "value": 400, "unit": "µL⁻¹"}, {"measurement": "absolute reticulocyte count (ARC) during treatment", "setting": "[3]; p=0.0006", "value": "decreased"}, {"measurement": "total bilirubin during treatment", "setting": "[3]; p=0.01", "value": "decreased"}, {"measurement": "nadir ANC, grade 3 neutropenia", "setting": "[3]; two patients", "value": 800, "unit": "µL⁻¹"}, {"measurement": "DNMT1 protein expression", "setting": "KG1a; 0.3 µM daily for 2-3 days", "value": "profoundly decreased DNMT1 protein expression"}, {"measurement": "viability", "setting": "KG1a; 0.3 µM daily for 2-3 days", "value": "did not decrease the viability"}, {"measurement": "phospho-H2AX", "setting": "KG1a; 0.3 µM, 3 days of treatment", "value": "an increase in phospho-H2AX was noted"}, {"measurement": "mutations as measured by 6TG resistance", "setting": "[4]", "value": "did not produce mutations"}, {"measurement": "mutations as measured by tri-fluorothymidine resistance", "setting": "[4]; thymidine kinase locus", "value": "did induce mutations"}, {"measurement": "thyroid carcinoma promotion", "setting": "thyroid carcinoma", "value": "promoted goitrogen induced, but not radiation induced, thyroid carcinoma"}, {"measurement": "testicular weight, sperm counts and fertility", "setting": "[5]", "value": "dose-dependent decrease in testicular weight, decline in sperm counts and reduced fertility"}, {"measurement": "clinical adverse events attributed to decitabine", "setting": "[6]; 13 SCD and 5 β-thalassemia intermedia patients, SC decitabine 12-36 weeks", "value": "no clinical adverse events attributed to decitabine"}, {"measurement": "platelet count increases to", "setting": "[6]; SCD study of decitabine", "value": "> 8e+11", "unit": "L⁻¹"}, {"measurement": "HbF increase from baseline", "setting": "[6]; parenteral decitabine 2–3X/week, plateau after 12 weeks, SCD patients without HbF response to hydroxyurea", "value": "> 10", "unit": "%"}, {"measurement": "platelet count increases to", "setting": "[6]; sickle cell study, subcutaneous decitabine", "value": "~ 1000 x 10^9/L"}]}]}
